# How the values were obtained:
# GluN1-1a/GluN2A NMDAR = GluN1-1a/GluN2A NMDAR (Rattus norvegicus, UniProt P35439+Q00959); assay: cell-based; conditions: read-out: ion current inhibition % ± SEM, GluN2A
# GluN1-1a Y109S/GluN2B WT = GluN1-1a Y109S/GluN2B WT (Rattus norvegicus, UniProt P35439+Q00960, Y109S); conditions: GluN1-1a Y109S
# GluN1-1a WT/GluN2B F114A = GluN1-1a WT/GluN2B F114A (Rattus norvegicus, UniProt P35439+Q00960, F114A); conditions: GluN2B F114A
# GluN1-1a WT/GluN2B F176A = GluN1-1a WT/GluN2B F176A (Rattus norvegicus, UniProt P35439+Q00960, F176A); conditions: GluN2B F176A
# Sequence of GluN1-1a WT/GluN2B F176A (Q00960 27-1482 F176A, other chains not shown): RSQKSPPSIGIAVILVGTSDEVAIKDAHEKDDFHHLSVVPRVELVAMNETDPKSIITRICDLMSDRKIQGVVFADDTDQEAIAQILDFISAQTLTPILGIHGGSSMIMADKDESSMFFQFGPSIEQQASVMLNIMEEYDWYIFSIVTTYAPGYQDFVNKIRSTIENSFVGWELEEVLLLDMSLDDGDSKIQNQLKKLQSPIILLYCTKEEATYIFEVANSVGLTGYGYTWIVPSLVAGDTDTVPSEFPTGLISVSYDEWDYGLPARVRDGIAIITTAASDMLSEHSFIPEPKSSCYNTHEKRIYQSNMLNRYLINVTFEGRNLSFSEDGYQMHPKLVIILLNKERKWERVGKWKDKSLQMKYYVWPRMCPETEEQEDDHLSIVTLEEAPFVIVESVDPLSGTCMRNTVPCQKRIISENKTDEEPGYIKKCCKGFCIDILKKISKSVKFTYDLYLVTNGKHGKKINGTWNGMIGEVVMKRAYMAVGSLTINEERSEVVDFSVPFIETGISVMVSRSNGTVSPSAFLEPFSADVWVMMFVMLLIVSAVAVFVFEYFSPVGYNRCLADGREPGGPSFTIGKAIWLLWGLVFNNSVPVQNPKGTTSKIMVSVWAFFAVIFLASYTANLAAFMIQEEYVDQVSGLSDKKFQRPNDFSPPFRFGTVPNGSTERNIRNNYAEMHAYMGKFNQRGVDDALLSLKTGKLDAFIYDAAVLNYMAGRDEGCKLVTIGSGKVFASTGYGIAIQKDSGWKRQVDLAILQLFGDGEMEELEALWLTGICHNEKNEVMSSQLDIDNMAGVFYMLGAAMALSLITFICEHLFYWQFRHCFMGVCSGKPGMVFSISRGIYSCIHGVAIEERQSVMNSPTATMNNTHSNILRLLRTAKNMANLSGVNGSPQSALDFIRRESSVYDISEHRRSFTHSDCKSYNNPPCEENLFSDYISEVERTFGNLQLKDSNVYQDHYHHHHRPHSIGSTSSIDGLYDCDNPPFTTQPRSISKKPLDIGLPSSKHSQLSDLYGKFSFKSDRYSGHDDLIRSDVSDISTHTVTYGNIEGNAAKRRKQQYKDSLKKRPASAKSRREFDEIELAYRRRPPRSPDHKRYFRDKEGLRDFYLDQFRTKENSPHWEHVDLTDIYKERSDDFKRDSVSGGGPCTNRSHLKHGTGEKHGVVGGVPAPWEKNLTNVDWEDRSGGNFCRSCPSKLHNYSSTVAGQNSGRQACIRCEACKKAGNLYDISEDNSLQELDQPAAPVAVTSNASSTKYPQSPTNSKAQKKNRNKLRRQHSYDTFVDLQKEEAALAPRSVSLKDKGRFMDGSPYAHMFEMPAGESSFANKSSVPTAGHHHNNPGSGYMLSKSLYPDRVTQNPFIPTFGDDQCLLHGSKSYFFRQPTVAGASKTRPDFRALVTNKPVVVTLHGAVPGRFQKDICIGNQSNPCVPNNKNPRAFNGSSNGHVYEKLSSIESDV
# GluN1-1a WT/GluN2B I111A = GluN1-1a WT/GluN2B I111A (Rattus norvegicus, UniProt P35439+Q00960, I111A); conditions: GluN2B I111A
# [1] = system: NMDA receptor-dependent EPSCs in CA1 pyramidal neurons; assay: whole cell patch-clamp of evoked NMDAR-dependent EPSCs in hippocampal slices; type: cell-based, C57BL/6J mice; conditions: n = 5
# [2] = target: GluN1-1a/GluN2B NMDAR (wildtype) (Rattus norvegicus, UniProt P35439+Q00960); type: cell-based; conditions: for p (slope of the dose-response curve) / A2 ± SE (maximum inhibition from dose-response curve): −70 mV; for A2 ± SE (maximum inhibition from dose-response curve): flexible A2
# Sequence of GluN1-1a/GluN2B NMDAR (wildtype) (Q00960 27-1482, other chains not shown): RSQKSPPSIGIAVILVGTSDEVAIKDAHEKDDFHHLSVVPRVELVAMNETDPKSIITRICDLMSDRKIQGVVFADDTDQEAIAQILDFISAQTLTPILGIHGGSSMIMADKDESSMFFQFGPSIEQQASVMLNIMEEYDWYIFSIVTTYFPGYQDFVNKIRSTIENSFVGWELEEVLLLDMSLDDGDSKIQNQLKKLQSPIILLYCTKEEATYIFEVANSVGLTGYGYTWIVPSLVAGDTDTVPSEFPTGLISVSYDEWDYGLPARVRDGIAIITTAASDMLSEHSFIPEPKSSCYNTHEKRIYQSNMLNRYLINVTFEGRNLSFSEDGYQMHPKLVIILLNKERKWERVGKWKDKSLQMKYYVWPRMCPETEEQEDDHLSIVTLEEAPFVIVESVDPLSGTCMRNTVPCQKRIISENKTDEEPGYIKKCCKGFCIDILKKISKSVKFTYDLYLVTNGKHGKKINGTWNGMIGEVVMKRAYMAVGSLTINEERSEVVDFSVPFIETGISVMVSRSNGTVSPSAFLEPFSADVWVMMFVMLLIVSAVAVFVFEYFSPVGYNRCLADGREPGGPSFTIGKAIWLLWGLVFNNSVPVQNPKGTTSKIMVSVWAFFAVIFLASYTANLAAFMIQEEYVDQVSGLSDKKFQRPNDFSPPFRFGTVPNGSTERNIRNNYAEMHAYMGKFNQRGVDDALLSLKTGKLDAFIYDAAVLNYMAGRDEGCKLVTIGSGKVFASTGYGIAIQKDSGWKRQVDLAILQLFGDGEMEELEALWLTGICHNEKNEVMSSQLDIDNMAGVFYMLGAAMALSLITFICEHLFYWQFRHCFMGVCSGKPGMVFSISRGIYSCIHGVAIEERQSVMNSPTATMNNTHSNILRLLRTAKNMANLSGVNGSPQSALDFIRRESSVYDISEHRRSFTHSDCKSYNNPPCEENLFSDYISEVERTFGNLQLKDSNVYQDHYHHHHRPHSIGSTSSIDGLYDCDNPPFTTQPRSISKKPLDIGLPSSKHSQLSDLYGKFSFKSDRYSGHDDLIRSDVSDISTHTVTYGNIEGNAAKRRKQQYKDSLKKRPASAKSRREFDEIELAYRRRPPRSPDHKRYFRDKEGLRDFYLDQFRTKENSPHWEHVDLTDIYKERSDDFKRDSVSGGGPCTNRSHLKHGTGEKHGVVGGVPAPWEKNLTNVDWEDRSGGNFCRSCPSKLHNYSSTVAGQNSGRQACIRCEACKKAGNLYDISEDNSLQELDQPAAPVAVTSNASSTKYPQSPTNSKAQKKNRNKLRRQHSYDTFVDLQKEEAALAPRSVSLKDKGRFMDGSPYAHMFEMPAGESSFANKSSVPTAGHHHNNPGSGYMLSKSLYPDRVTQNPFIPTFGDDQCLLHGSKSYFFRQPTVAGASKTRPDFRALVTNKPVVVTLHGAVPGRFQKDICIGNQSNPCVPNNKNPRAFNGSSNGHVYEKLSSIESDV
# GluN1-1a L135N/GluN2B WT = GluN1-1a L135N/GluN2B WT (Rattus norvegicus, UniProt P35439+Q00960, L135N); conditions: GluN1-1a L135N
# GluN1-1a WT/GluN2B Q110A = GluN1-1a WT/GluN2B Q110A (Rattus norvegicus, UniProt P35439+Q00960, Q110A); conditions: GluN2B Q110A
# GluN1-1a WT/GluN2B E236A = GluN1-1a WT/GluN2B E236A (Rattus norvegicus, UniProt P35439+Q00960, E236A); conditions: GluN2B E236A
# GluN1-1a F113S/GluN2B WT = GluN1-1a F113S/GluN2B WT (Rattus norvegicus, UniProt P35439+Q00960, F113S); conditions: GluN1-1a F113S
# GluN1-1a S132A/GluN2B WT = GluN1-1a S132A/GluN2B WT (Rattus norvegicus, UniProt P35439+Q00960, S132A); conditions: GluN1-1a S132A
# GluN1-1a WT/GluN2B F176Y = GluN1-1a WT/GluN2B F176Y (Rattus norvegicus, UniProt P35439+Q00960, F176Y); conditions: GluN2B F176Y
# Sequence of GluN1-1a WT/GluN2B F176Y (Q00960 27-1482 F176Y, other chains not shown): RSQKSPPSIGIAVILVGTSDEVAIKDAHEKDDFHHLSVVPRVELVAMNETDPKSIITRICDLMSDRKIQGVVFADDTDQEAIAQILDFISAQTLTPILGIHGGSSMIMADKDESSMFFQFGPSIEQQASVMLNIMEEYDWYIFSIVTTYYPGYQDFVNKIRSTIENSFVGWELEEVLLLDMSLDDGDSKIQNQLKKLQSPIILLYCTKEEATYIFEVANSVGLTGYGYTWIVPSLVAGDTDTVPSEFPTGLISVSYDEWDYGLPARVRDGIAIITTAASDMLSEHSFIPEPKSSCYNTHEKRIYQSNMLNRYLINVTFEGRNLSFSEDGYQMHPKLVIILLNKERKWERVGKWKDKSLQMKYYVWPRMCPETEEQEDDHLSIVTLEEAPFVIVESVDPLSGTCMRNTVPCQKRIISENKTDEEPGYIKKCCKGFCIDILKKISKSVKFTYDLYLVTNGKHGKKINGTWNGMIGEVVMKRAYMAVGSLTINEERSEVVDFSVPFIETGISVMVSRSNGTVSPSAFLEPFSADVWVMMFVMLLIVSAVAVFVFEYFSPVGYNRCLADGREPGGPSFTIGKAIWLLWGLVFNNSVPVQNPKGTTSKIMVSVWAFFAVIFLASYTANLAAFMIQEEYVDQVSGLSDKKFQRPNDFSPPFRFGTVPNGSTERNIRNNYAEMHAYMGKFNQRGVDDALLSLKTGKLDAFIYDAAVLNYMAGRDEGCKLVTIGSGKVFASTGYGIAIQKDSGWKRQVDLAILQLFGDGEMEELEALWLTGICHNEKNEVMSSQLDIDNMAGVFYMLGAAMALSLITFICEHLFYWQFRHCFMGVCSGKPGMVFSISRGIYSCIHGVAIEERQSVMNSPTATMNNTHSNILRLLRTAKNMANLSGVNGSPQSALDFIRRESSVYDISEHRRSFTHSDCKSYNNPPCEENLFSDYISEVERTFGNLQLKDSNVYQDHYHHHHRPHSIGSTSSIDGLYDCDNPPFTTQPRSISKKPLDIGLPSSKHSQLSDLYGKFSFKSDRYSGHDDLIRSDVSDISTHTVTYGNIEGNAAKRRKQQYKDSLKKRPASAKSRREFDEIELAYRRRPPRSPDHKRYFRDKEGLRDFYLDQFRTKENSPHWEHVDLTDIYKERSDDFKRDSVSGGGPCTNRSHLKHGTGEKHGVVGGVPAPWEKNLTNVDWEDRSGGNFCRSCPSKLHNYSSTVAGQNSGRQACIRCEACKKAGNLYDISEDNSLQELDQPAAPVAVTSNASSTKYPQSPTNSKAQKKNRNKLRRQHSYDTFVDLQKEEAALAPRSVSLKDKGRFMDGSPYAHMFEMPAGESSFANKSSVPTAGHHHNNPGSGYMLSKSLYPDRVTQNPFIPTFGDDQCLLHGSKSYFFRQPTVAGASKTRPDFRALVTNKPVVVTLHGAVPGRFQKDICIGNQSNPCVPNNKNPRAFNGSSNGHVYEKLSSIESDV
# GluN1-1a/GluN2C NMDAR = GluN1-1a/GluN2C NMDAR (Rattus norvegicus, UniProt P35439+Q00961); assay: cell-based; conditions: read-out: ion current inhibition % ± SEM, GluN2C
# GluN1-1a/GluN2D NMDAR = GluN1-1a/GluN2D NMDAR (Rattus norvegicus, UniProt P35439+Q62645); assay: cell-based; conditions: read-out: ion current inhibition % ± SEM, GluN2D
# [3] = system: more than 100 relevant receptors, transporters and enzymes including adrenergic (α1), dopaminergic (D1, D2), opioid (κ, μ, δ) and serotonergic receptors …; design: method as in earlier work; conditions: concentration of 1 - 3 µM; ref 2 (Tewes et al., Bioorg. Med. Chem. 2010); cited from earlier work
# [4] = maximum inhibition fixed to wildtype value
compound,measurement,setting,value
"CC(C(O)c1ccc(O)cc1)N1CCC(Cc2ccccc2)CC1 (stereo not drawn) [ifenprodil, reference compound]",inhibition at 10 µM,GluN1-1a/GluN2A NMDAR,5 ± 1%
same,p (slope),GluN1-1a Y109S/GluN2B WT,0.88
same,A2 ± SE,GluN1-1a Y109S/GluN2B WT; flexible A2,74 ± 2%
same,p (slope),GluN1-1a WT/GluN2B F114A,0.63
same,"A2, fixed-to-wildtype (*)",GluN1-1a WT/GluN2B F114A; [4],94%
same,p (slope),GluN1-1a WT/GluN2B F176A,0.87
same,"A2, fixed-to-wildtype (*)",GluN1-1a WT/GluN2B F176A; [4],94%
same,p (slope),GluN1-1a WT/GluN2B I111A,0.90
same,A2 ± SE,GluN1-1a WT/GluN2B I111A; flexible A2,68 ± 7%
same,"EPSC amplitude, % of the initial baseline (SEM)",[1]; 1 µM compound,74.4 ± 8.9%
same,"EPSC amplitude, % of the initial baseline (SEM)",[1]; 6 µM compound,22.7 ± 4.7%
same,"EPSC amplitude after washout, % of the initial baseline (SEM)",[1]; washout of compound,31.9 ± 5%
same,p (slope of the dose-response curve),"[2]; TEVC, wildtype",0.97
same,A2 ± SE (maximum inhibition from dose-response curve),"[2]; TEVC, wildtype",94 ± 2%
same,inhibition at 10 µM,"[2]; read-out: ion current inhibition % ± SEM, GluN2B",91 ± 1%
same,p (slope),GluN1-1a L135N/GluN2B WT,0.99
same,A2 ± SE,GluN1-1a L135N/GluN2B WT; flexible A2,76 ± 3%
same,p (slope),GluN1-1a WT/GluN2B Q110A,0.64
same,A2 ± SE,GluN1-1a WT/GluN2B Q110A; flexible A2,98 ± 5%
same,p (slope),GluN1-1a WT/GluN2B E236A,1.18
same,A2 ± SE,GluN1-1a WT/GluN2B E236A; flexible A2,88 ± 5%
same,p (slope),GluN1-1a F113S/GluN2B WT,1.09
same,A2 ± SE,GluN1-1a F113S/GluN2B WT; flexible A2,72 ± 3%
same,p (slope),GluN1-1a S132A/GluN2B WT,0.79
same,A2 ± SE,GluN1-1a S132A/GluN2B WT; flexible A2,89 ± 3%
same,p (slope),GluN1-1a WT/GluN2B F176Y,0.57
same,"A2, fixed-to-wildtype (*)",GluN1-1a WT/GluN2B F176Y; [4],94%
same,inhibition at 10 µM,GluN1-1a/GluN2C NMDAR,9 ± 1%
same,inhibition at 10 µM,GluN1-1a/GluN2D NMDAR,24 ± 4%
Oc1ccc2c(c1)CCN(CCCCc1ccccc1)CC2O (racemic) [compound rac-1],competition with the employed radioligands,[3],did not compete
same,IC50,"[2]; TEVC, holding potential −70 mV, 10 µM glycine and 10 µM (S)-glutamate, wildtype, read-out: IC50 ± SE",94 ± 8 nM
same,p (slope of the dose-response curve),"[2]; TEVC, wildtype",1.25
same,A2 ± SE (maximum inhibition from dose-response curve),"[2]; TEVC, wildtype",93 ± 2%
